Laboratory results reported in patent publication US10550120B2, “Indole alkaloid compound having immune checkpoint inhibitory action” (TOHOKU UNIVERSITY, priority 2016, dated 2020).

Legend:
CTLA-4 = test: Intracellular staining of MT2 cells with fluorescence-labeled anti-CTLA-4 antibody and measurement by flow cytometry; format: cell-based, human; details: 48±2 hours; for Peak MFI of CTLA-4: isotype IgG2a subtracted, average of n=3
Experimental: (§1) MT2 cells from human adult T-cell leukemia were used. Leukemia cells of human adult T-cell leukemia (ATL) express CD4 and CD25 molecules on the cell surface and are considered to be derived from Treg (Chen S. et al., International Immunology 18:269-277 (2005)). MT2 cells were used in experiments as models of Treg since the cells are CD4 positive, CD25 positive, and FOXP3 positive celles derived from ATL.
(§2) The example compounds (compounds 1-17) of the present invention were dissolved in dimethylsulfoxide (DMSO) to prepare each 50 mmol/L solution, which was preserved at −80° C.
(1) MT2 cells were suspended in RPMI1640 medium (hereinafter referred to as “the medium”) supplemented with 10% fetal calf serum (FCS) and 1° penicillin/streptomycin (P/S) to give 3×10^5 cells/mL suspension and 3 mL of the suspension was added to each well of a 6-well plate. To each well were added 0.6 or 1.2 μL of the test compound solutions (compounds 1, 2, and 4), 0.75 or 1.5 μL of the test compound solution (compound 9), and 1.5 μL of the test compound solutions (compounds 8 and 10-17), and the cell cultures were incubated in a CO2 gas incubator (under 37° C., 5% CO2) and cultured for 48±2 hours. As a control of compound 1, 2 and 4, only 1.2 μL of DMSO was added to the well. In addition, as a control of compound 8-17, only 1.5 μL of DMSO was added to the well.
(2) A piece of the cell culture was sampled to count cells with a cell counter (BIO RAD TC-20). The cell culture was centrifuged at 300×g for 5 min, and the supernatant was removed. The residue was suspended in phosphate buffered saline (supplemented with 1% bovine serum albumin (BSA), without calcium and magnesium) (1% BSA/PBS) to adjust the concentration of cells to 5-10×10^6 cells/mL.
(3) To 5 ml tube, each 50 μL of the cell suspension was added.
(4) Foxp3/Transcription Factor Fix/Perm Concentrate (4×) (Cat. No. TNB-1020-L050) (Solution A) in FOXP3/Transcription Factor Staining kit (TONBO biosciences) was diluted with Foxp3/Transcription Factor Fix/Perm Diluent (1×) (Cat. No. TNB-1022-L160) (for dilution of Solution A) to prepare 1× Solution A.
(5) 1 mL of 1× Solution A was added to each tube and mixed by gentle pipetting. Subsequently, it was left at room temperature for 30 min, centrifuged at 300×g for […], and the supernatant was discarded.
(6) Flow Cytometry Perm Buffer (10×) (Cat. No. TNB-1213-L150) (Solution B) in the kit was diluted 10-fold with water to prepare 1× Solution B.
(7) 2 mL of 1× Solution B was added to the tube and centrifuged at 300×g for 5 min. The supernatant was discarded. 2 μL of 2% normal mouse serum/PBS was added to the tube and the tube was gently pipetted. Subsequently, it was left at room temperature for 15 min.
(8) In the CTLA-4 measurement, 20 μL of anti-CTLA-4 antibody (BECKMAN COULTER, CD152-PE clone BN13I M2282) or mouse IgG2a (BECKMAN COULTER, IgG2a (Mouse)-PE A09142) for the control was added to the tube and the tube was gently stirred. Subsequently, it was left in the dark at room temperature for 30 min, and 2 mL of the 1× Solution B was added thereto, the mixture was centrifuged at 300×g for 5 min, and the supernatant was discarded. 2 mL of the 1× Solution B was added to the tube again, the mixture was centrifuged at 300×g for 5 min, and the supernatant was discarded.
(9) Within 2 hours after the solution in the tube was suspended in 0.5 mL of 1% BSA/PBS, and the fluorescence at 577 nm was measured with 488 nm excitation with a flow cytometer (Sony: Cell Sorter SH800). The results were analyzed with software, FlowJo (Tree Star Inc.). The mean peak fluorescence intensity (MFI) of CTLA-4 and mean peak fluorescence intensity of isotype control IgG2a were calculated from histgrams of the measured fluorescence intensity and number of cells, and mean fluorescence intensity of IgG2a was subtracted from that of CTLA-4. Experiments were conducted in n=3, and the average values were shown.

IL-10 = test: Measurement of human IL-10 amount in culture supernatant of MT2 cells with ELISA kit (Test 1); format: cell-based; details: 48±2 hours
Experimental: as §1, §2
The amount of IL-10 production in the control and the example compounds was measured to evaluate the inhibitory effect on IL-10 production of the example compounds of the present invention.
(1) MT2 cells are suspended in RPMI1640 medium (hereinafter referred to as “the medium”) supplemented with 10% fetal calf serum (FCS) and 1% penicillin/streptomycin (P/S) to give 3×10^5 cells/mL suspension, and 1 mL of the suspension was added to each well of a 24-well plate. […] The cell cultures were incubated 48±2 hours in a CO2 incubator (under a condition of 37° C., 5 CO2). DMSO was diluted 50-fold with the medium, and 20 μL of the diluent was added to the well to make a control of compounds 1-7. In addition, DMSO was diluted 50-fold with the medium, and 25.0 μL of the diluent was added to the well to make a control of compounds 8-17.
(2) A piece of the cell culture was sampled to count cells with a cell counter (BIO RAD TC-20). The cell culture was centrifuged at 300×g for 5 minutes and the supernatant was collected as a sample for IL-10 measurement. When not measured within a day, it was preserved in a freezer at −80° C.
(3) Human IL-10 ELISA kit II (BD OptEIA) was used on the measurement. The kit contains wells treated with anti-IL-10 antibody (8 wells/strip), Standard/Sample diluent, vials comprising freeze-dried IL-10 Standard (1280 pg/vial), ELISA diluent, 20× Wash Buffer, Detection antibody, Enzyme Concentrate, TMB One Step Substrate Reagent, Stop Solution, and cover sheets.
(4) To a vial containing IL-10 Standard was added […] Standard/Sample diluent, and the vial was stood at room temperature for 15 minutes to be dissolved (Standard sample stock solution 1L-10 concentration: 500 pg/mL).
(5) Standard samples in each concentration for making a standard curve were prepared as follows. Firstly, to 300 μL of the medium was added 300 μL of the standard sample stock solution, and the mixture was mixed with a Voltex mixer (250 pg/mL). Next, 300 μL of the standard sample of 250 pg/mL was added to 300 μL of the medium and the mixture was mixed with a Voltex mixer (125 pg/mL). The same procedures were successively repeated to prepare standard solutions of 62.5, 31.25, 15.625, and 7.8125 pg/mL. As 0 pg/mL standard solution, the medium was used.
(6) A kit containing wells treated with anti-IL-10 antibody (8 wells/strip) was warmed to room temperature and 50 μL of ELISA diluent in the kit was added into each well.
(7) To each well containing ELISA diluent, 100 μL of the standard samples of each concentration and each test sample (diluded 50-100 fold with medium) were added.
(8) After the wells were sealed with a cover sheet and gently tapped, they were left at room temperature for 2 hours.
(9) 20× Wash Buffer was diluted 20-fold with water to prepare 1× Wash Buffer.
(10) After the reaction was done for 2 hours, the solutions in each well were aspirated and washed 5 times with 300 μL of 1× Wash Buffer.
(11) After Enzyme Concentrate (4 μL per 8 wells) was added to Detection antibody (1 ml per 8 wells), the solution was mixed by a Vortex mixer and then a necessary amount of Working Detector was prepared.
(12) 100 μL of Working Detector was added to each well, covered with a cover sheet, and the wells were left at room temperature for an hour.
(13) After the reaction was done for an hour, the solutions in wells were aspirated and washed 7 times with 300 μL of 1× Wash Buffer. […]

[1] = Homo sapiens, 48 h, 25.0 μmol/L, DMSO control = 100%, read-out: % against control (CTLA-4 expression)
[2] = Homo sapiens, 48 h, 12.5 μmol/L, DMSO control = 100%, read-out: % against control (IL-10 production)
[3] = Homo sapiens, 48 h, 25.0 μmol/L, DMSO control = 100%, read-out: % against control (IL-10 production)

COC(=O)C1=CN2CCc3c([nH]c4c(C)cccc34)[C@@H]2[C@@H]2[C@@H](C)[C@@H](O)C[C@H]12 [Compound 11]
Peak MFI of CTLA-4 (CTLA-4; 25.0 μmol/L): 602
activity at 25 µM (CTLA-4; [1]): 59.5%
IL-10 (ng/10^6 cells) ± standard deviate (n = 3) (IL-10; 12.5 μmol/L): 7.4 ± 0.2 ng/10^6 cells
IL-10 (ng/10^6 cells) ± standard deviate (n = 3) (IL-10; 25.0 μmol/L): 5.6 ± 0.3 ng/10^6 cells
activity at 12.5 µM (IL-10; [2]): 78.2%
activity at 25 µM (IL-10; [3]): 55.4%

COC(=O)C1=CN2CCc3c([nH]c4ccccc34)[C@H]2[C@@H]2C(CO)=CC[C@H]12 [Compound 4]
Peak MFI of CTLA-4 (CTLA-4; 10 μmol/L): 796.0
Peak MFI of CTLA-4 (CTLA-4; 20 μmol/L): 621.0
activity at 10 µM (CTLA-4; Homo sapiens, 48 h, 10 μmol/L, DMSO control = 100%, read-out: % against control (CTLA-4 expression)): 93.4%
activity at 20 µM (CTLA-4; Homo sapiens, 48 h, 20 μmol/L, DMSO control = 100%, read-out: % against control (CTLA-4 expression)): 72.9%
IL-10 (ng/10^6 cells) ± standard deviate (n = 3) (IL-10; 10 μmol/L): 8.0 ± 0.2 ng/10^6 cells
IL-10 (ng/10^6 cells) ± standard deviate (n = 3) (IL-10; 20 μmol/L): 4.3 ± 0.5 ng/10^6 cells
activity at 10 µM (IL-10; Homo sapiens, 48 h, 10 μmol/L, DMSO control = 100%, read-out: % against control (IL-10 production)): 42.9%
activity at 20 µM (IL-10; Homo sapiens, 48 h, 20 μmol/L, DMSO control = 100%, read-out: % against control (IL-10 production)): 23%

COC(=O)C1=CN2CCc3c([nH]c4cc(OC)ccc34)[C@@H]2[C@@H]2[C@@H](C)[C@@H](O)C[C@H]12 [Compound 8]
Peak MFI of CTLA-4 (CTLA-4; 25.0 μmol/L): 361
activity at 25 µM (CTLA-4; [1]): 50%
IL-10 (ng/10^6 cells) ± standard deviate (n = 3) (IL-10; 12.5 μmol/L): 15.5 ± 1.2 ng/10^6 cells
IL-10 (ng/10^6 cells) ± standard deviate (n = 3) (IL-10; 25.0 μmol/L): 7.9 ± 0.4 ng/10^6 cells
activity at 12.5 µM (IL-10; [2]): 94.6%
activity at 25 µM (IL-10; [3]): 48.4%

COC(=O)C1=CN2CCc3c([nH]c4c(F)cccc34)[C@@H]2[C@@H]2[C@@H](C)[C@@H](O)C[C@H]12 [Compound 17]
Peak MFI of CTLA-4 (CTLA-4; 25.0 μmol/L): 339
activity at 25 µM (CTLA-4; [1]): 45%
IL-10 (ng/10^6 cells) ± standard deviate (n = 3) (IL-10; 12.5 μmol/L): 7.0 ± 0.2 ng/10^6 cells
IL-10 (ng/10^6 cells) ± standard deviate (n = 3) (IL-10; 25.0 μmol/L): 6.0 ± 0.2 ng/10^6 cells
activity at 12.5 µM (IL-10; [2]): 64.2%
activity at 25 µM (IL-10; [3]): 54.2%
